Assay results: the NIST ThermoML archive (doi:10.1021/je800110r)

Conditions: 303.16 K, Liquid, Vibrating tube method

CCCCCCCCCC [decane]
Conditions	mass density [kg/m3]
9263 kPa	729.6
9277 kPa	729.6
9288 kPa	729.7
9302 kPa	729.7
9321 kPa	729.7
9332 kPa	729.7
9348 kPa	729.7
9360 kPa	729.7
9372 kPa	729.7
9392 kPa	729.7
9407 kPa	729.8
9419 kPa	729.8
9433 kPa	729.7
9449 kPa	729.9
9461 kPa	729.8
9473 kPa	729.8
9491 kPa	729.7
9509 kPa	729.9
9521 kPa	729.8
9535 kPa	729.8
9552 kPa	729.9
9566 kPa	729.8
9581 kPa	729.7
9595 kPa	729.9
9608 kPa	729.9
9624 kPa	729.9
9639 kPa	729.8
9655 kPa	729.9
9672 kPa	730
9685 kPa	729.8
9704 kPa	729.9
9725 kPa	730
9738 kPa	730
9754 kPa	730
9767 kPa	730.2
9778 kPa	730
9793 kPa	730.1
9808 kPa	729.9
9820 kPa	730
9831 kPa	730.1
9841 kPa	730.1
9855 kPa	730.1
9870 kPa	730.1
9881 kPa	730.2
9900 kPa	730.1
9913 kPa	730.1
9921 kPa	730.2
9935 kPa	730.2
9946 kPa	730.2
9956 kPa	730.2
9969 kPa	730.2
9979 kPa	730.1
9992 kPa	730.3
10003 kPa	730.3
10021 kPa	730.1
10032 kPa	730.2
10048 kPa	730.2
10090 kPa	730.4
10106 kPa	730.3
10117 kPa	730.4
10132 kPa	730.2
10145 kPa	730.3
10164 kPa	730.3
10176 kPa	730.5
10188 kPa	730.3
10206 kPa	730.3
10221 kPa	730.3
10231 kPa	730.4
10246 kPa	730.4
10276 kPa	730.4
10289 kPa	730.5
10302 kPa	730.4
10318 kPa	730.5
10331 kPa	730.4
10343 kPa	730.5
10358 kPa	730.5
10374 kPa	730.4
10385 kPa	730.4
10401 kPa	730.6
10414 kPa	730.4
10432 kPa	730.6
10446 kPa	730.4
10458 kPa	730.6
10475 kPa	730.6
10487 kPa	730.5
10499 kPa	730.6
10515 kPa	730.7
10527 kPa	730.7
10545 kPa	730.6
10562 kPa	730.7
10574 kPa	730.6
10584 kPa	730.6
10602 kPa	730.7
10616 kPa	730.7
10630 kPa	730.7
10646 kPa	730.7
10659 kPa	730.7
10672 kPa	730.6
10688 kPa	730.8
10707 kPa	730.8
10717 kPa	730.7
10729 kPa	730.8
10748 kPa	730.7
10765 kPa	730.9
10779 kPa	730.7
10791 kPa	730.8
10806 kPa	730.8
10823 kPa	730.8
10836 kPa	730.7
10856 kPa	730.8
10873 kPa	730.9
10886 kPa	731
10904 kPa	731
10917 kPa	731.1
10937 kPa	730.9
10954 kPa	731
10969 kPa	730.8
10986 kPa	731
11001 kPa	730.9
11014 kPa	731
11030 kPa	731.1
11049 kPa	731
11062 kPa	730.9
11082 kPa	731
11102 kPa	731.1
11116 kPa	731.1
11133 kPa	731
11149 kPa	731
11162 kPa	731
11186 kPa	731.1
11200 kPa	731.1
11216 kPa	731.1
11234 kPa	731.2
11257 kPa	731.1
11275 kPa	731.2
11291 kPa	731.2
11312 kPa	731.2
11330 kPa	731.2
11347 kPa	731.2
11365 kPa	731.2
11379 kPa	731.1
11396 kPa	731.2
11417 kPa	731.3
11436 kPa	731.3
11452 kPa	731.4
11469 kPa	731.4
11485 kPa	731.3
11504 kPa	731.4
11519 kPa	731.2
11533 kPa	731.3
11553 kPa	731.3
11570 kPa	731.4
11589 kPa	731.5
11609 kPa	731.2
11623 kPa	731.4
11643 kPa	731.3
11660 kPa	731.4
11677 kPa	731.5
11695 kPa	731.6
11712 kPa	731.6
11732 kPa	731.5
11749 kPa	731.5
11762 kPa	731.6
11782 kPa	731.5
11797 kPa	731.5
11820 kPa	731.6
11843 kPa	731.7
11858 kPa	731.6
11881 kPa	731.7
11901 kPa	731.7
11916 kPa	731.7
11942 kPa	731.6
11962 kPa	731.7
11978 kPa	731.6
11996 kPa	731.6
12012 kPa	731.6
12034 kPa	731.8
12055 kPa	731.8
12070 kPa	731.8
12097 kPa	731.7
12118 kPa	731.7
12135 kPa	731.8
12159 kPa	731.8
12183 kPa	731.9
12196 kPa	731.9
12215 kPa	731.9
12234 kPa	731.7
12254 kPa	731.8
12270 kPa	731.9
12289 kPa	731.9
12305 kPa	732
12321 kPa	732.1
12346 kPa	731.9
12371 kPa	732
12391 kPa	732.1
12410 kPa	732.1
12430 kPa	731.9
12452 kPa	732.1
12470 kPa	732.1
12489 kPa	732.1
12509 kPa	732
12535 kPa	732.1
12555 kPa	732
12575 kPa	732.1
12592 kPa	732.2
12618 kPa	732.2
12635 kPa	732.1
12653 kPa	732.1
12679 kPa	732.2
12702 kPa	732.3
12723 kPa	732.2
12747 kPa	732.3
12767 kPa	732.3
12785 kPa	732.3
12809 kPa	732.2
12833 kPa	732.2
12850 kPa	732.4
12872 kPa	732.4
12896 kPa	732.5
12917 kPa	732.4
12942 kPa	732.3
12960 kPa	732.4
12984 kPa	732.4
13003 kPa	732.3
13025 kPa	732.5
13047 kPa	732.5
13074 kPa	732.6
13102 kPa	732.6
13121 kPa	732.4
13143 kPa	732.6
13165 kPa	732.5
13187 kPa	732.5
13210 kPa	732.5
13232 kPa	732.6
13251 kPa	732.6
13274 kPa	732.8
13296 kPa	732.7
13316 kPa	732.6
13344 kPa	732.6
13373 kPa	732.6
13393 kPa	732.7
13422 kPa	732.8
13451 kPa	732.7
13471 kPa	732.9
13501 kPa	732.8
13528 kPa	732.7
13551 kPa	732.8
13581 kPa	732.8
13605 kPa	732.9
13631 kPa	732.9
13656 kPa	733
13679 kPa	733
13699 kPa	733.1
13723 kPa	732.9
13747 kPa	732.9
13776 kPa	733
13797 kPa	732.9
13819 kPa	733.1
13850 kPa	733
13875 kPa	733.2
13903 kPa	733.1
13931 kPa	733.1
13957 kPa	733.1
13985 kPa	733.2
14017 kPa	733.2
14039 kPa	733.2
14064 kPa	733.2
14097 kPa	733.2
14129 kPa	733.3
14154 kPa	733.3
14184 kPa	733.4
14209 kPa	733.3
14239 kPa	733.4
14262 kPa	733.4
